Test results taken from US9957173B2, “Treatment of water” (BWA WATER ADDITIVES UK LIMITED, priority 2015, dated 2018).

What was measured:
[1] = tested on: Enterobacter aerogenes; experiment: Log10 reduction in viable count of facultative anaerobes after treatment of inoculated high-TDS aqueous system; format: cell-based; details: for Log10 Reduction Facultative Anaerobes: TDS 30,000 mg l^−1, 8 = complete kill
Experimental: (§1) Aqueous systems inoculated with anaerobe and facultative anaerobe culture and having a total dissolved solids (TDS) concentration of 30,000 mg l^−1 were prepared and treated with treatment agents comprising: (a) a phosphonium compound and (b) a nitro compound. The phosphonium compound (a) used was tri n-butyl n-tetradecyl phosphonium chloride (TTPC). The nitro compound (b) used was 2-hydroxymethyl-2-nitro-1,3-propanediol (THNM).
(§2) A suspension of Desulfovibrio vulgaris plus Enterobacter aerogenes bacteria containing from 1×10^5 to 1×10^6 cells/mL was prepared in sterile pH 8 phosphate buffer containing sodium chloride to give the desired total dissolved solids (TDS) concentration. Aliquots of this suspension were dosed with the indicated concentrations of the compounds (a) and (b) with the concentrations being measured as ppm. The mixtures were allowed to stand at room temperature. At the designated contact times, each mixture was sampled to determine the total number of viable cells of both Desulfovibrio vulgaris and Enterobacter aerogenes by serial 10-fold dilution into API RP 38 media vials and anaerobic acid producing media vials, respectively. The vials were incubated at 37° C. for 72 hours. Results were recorded as log10 reduction in the viable count versus the control.
(§3) The efficacy of the treatment agents was evaluated by measuring the Log10 Reduction of the anaerobic bacterium Desulfovibrio vulgaris and the facultative anaerobic bacterium Enterobacter aerogenes after contact times of 1 hour, 4 hours and 24 hours as detailed in Table 1. For TTPC the stated ppm value relates to the amount of TTPC added (active). For the THNM the stated ppm relates to the amount of THNM added (active).

[2] = tested on: Desulfovibrio vulgaris; experiment: Log10 reduction in viable count of anaerobes after treatment of inoculated high-TDS aqueous system; format: cell-based; details: for Log10 Reduction Anaerobes: TDS 30,000 mg l^−1, 5 = complete kill
Experimental: as §1, §2, §3

[3] = Example 3: THNM 75 ppm active alone, contact time 1 hour
[4] = Example 4: THNM 150 ppm active alone, contact time 1 hour
[5] = Example 11: THNM 75 ppm active alone, contact time 4 hours
[6] = Example 12: THNM 150 ppm active alone, contact time 4 hours
[7] = Example 19: THNM 75 ppm active alone, contact time 24 hours
[8] = Example 20: THNM 150 ppm active alone, contact time 24 hours
[9] = THNM alone, even at concentrations of 150 ppm
[10] = Example 1: TTPC 3.125 ppm active alone, contact time 1 hour
[11] = Example 2: TTPC 6.25 ppm active alone, contact time 1 hour
[12] = Example 9: TTPC 3.125 ppm active alone, contact time 4 hours
[13] = Example 10: TTPC 6.25 ppm active alone, contact time 4 hours
[14] = Example 17: TTPC 3.125 ppm active alone, contact time 24 hours
[15] = Example 18: TTPC 6.25 ppm active alone, contact time 24 hours

O=[N+]([O-])C(CO)(CO)CO [THNM, 2-hydroxymethyl-2-nitro-1,3-propanediol]
Log10 Reduction Facultative Anaerobes [1, 3]: 0
Log10 Reduction Facultative Anaerobes [1, 4]: 0
Log10 Reduction Facultative Anaerobes [1, 5]: 0
Log10 Reduction Facultative Anaerobes [1, 6]: 0
Log10 Reduction Facultative Anaerobes [1, 7]: 0
Log10 Reduction Facultative Anaerobes [1, 8]: 0
effect on facultative anaerobes [1, 9]: no affect
Log10 Reduction Anaerobes [2, 3]: 0
Log10 Reduction Anaerobes [2, 4]: 0
Log10 Reduction Anaerobes [2, 5]: 0
Log10 Reduction Anaerobes [2, 6]: 0
Log10 Reduction Anaerobes [2, 7]: 0
Log10 Reduction Anaerobes [2, 8]: 0
effect on anaerobes [2, 9]: no affect

CCCCCCCCCCCCCC[P+](CCCC)(CCCC)CCCC.[Cl-] [TTPC, tri n-butyl n-tetradecyl phosphonium chloride]
Log10 Reduction Facultative Anaerobes [1, 10]: 1
Log10 Reduction Facultative Anaerobes [1, 11]: 3
Log10 Reduction Facultative Anaerobes [1, 12]: 2
Log10 Reduction Facultative Anaerobes [1, 13]: 4
Log10 Reduction Facultative Anaerobes [1, 14]: 3
Log10 Reduction Facultative Anaerobes [1, 15]: 5
Log10 Reduction Anaerobes [2, 10]: 0
Log10 Reduction Anaerobes [2, 11]: 1
Log10 Reduction Anaerobes [2, 12]: 5
Log10 Reduction Anaerobes [2, 13]: 5
Log10 Reduction Anaerobes [2, 14]: 5
Log10 Reduction Anaerobes [2, 15]: 5
